Reference: patent publication US10562893B2, “Benzimidazoles derivatives as Tec kinases family inhibitors” (GB005, Inc., priority 2015, dated 2020)

What was measured:
Human PBMCs = assay: CD3/CD28 mediated PBMC proliferation assay; format: cell-based; conditions: proliferation of human PBMCs stimulated with anti-CD3 and anti-CD28, 72 hours, Cell Titer-Glo
Description: Inhibition of cellular ITK was assessed by measuring proliferation of PBMCs following stimulation with anti-CD3 and anti-CD28 antibodies. Individual wells of 96 well tissue culture plates were coated with 50 μL of 5 μg/mL anti-CD3 (OKT3, eBiosciences) for 2 hours at 37° C. Human PBMCs (Stemcell Technologies catalog #70025.3) were plated in 96-well plates at a final concentration of 9.2×10e5 cells/mL in complete media (RPMI, 10% heat inactivated FBS, 55 uM β-mercaptoethanol) and pre-treated with compound curves for 30 minutes at 37° C., 5% CO2. Pre-treated cells plus compounds were transferred to washed anti-CD3 coated plates. Soluble anti-CD28 (CD28.2 eBiosciences) was added to each well at a final concentration of 2 μg/mL. The cells were placed in a humidified 37° C. incubator with 5% CO2 for 72 hours and metabolic viability was measured by quantification of ATP levels with Cell Titer-Glo (Promega catalog # G9242). Controls included unstimulated cells and vehicle alone. EC50 values (50% proliferation in the presence of compound as compared to vehicle treated controls) were calculated from dose response compound curves using GraphPad Prism Software.

[1] = test system: Jurkat human acute T cell leukemia cells; assay: Jurkat IL-2 release assay; format: cell-based; conditions: IL-2 release from Jurkat cells stimulated with anti-CD3 and anti-CD28, 48 hours, ELISA
Description: Inhibition of cellular ITK was assessed by measuring release of IL-2 following stimulation with anti-CD3 and anti-CD28 antibodies. Individual wells of 96 well tissue culture plates were coated with 50 μL of 10 μg/mL anti-CD3 (OKT3, eBiosciences) for 2 hours at 37° C. Jurkat human acute T cell leukemia cells (ATCC) were plated in 96-well plates at a final concentration of 9.2×10e5 cells/mL in complete media (RPMI, 10% FBS, 1.5 g/L sodium bicarbonate, 10 mM Hepes, 1 mM sodium pyruvate, 4.5 g/L glucose) and pre-treated with compound curves for 30 minutes at 37° C., 5% CO2. Pre-treated cells plus compounds were transferred to washed anti-CD3 coated plates. Soluble anti-CD28 (CD28.2 eBiosciences) was added to each well at a final concentration of 1 μg/mL. The cells were placed in a humidified 37° C. incubator with 5% CO2 for 48 hours and IL-2 release was measured using a commercial ELISA (BD Bioscience catalog #555190). Controls included unstimulated cells and vehicle alone. EC50 values (50% IL-2 release in the presence of compound as compared to vehicle treated controls) were calculated from dose response compound curves using GraphPad Prism Software.

ITK = ITK (Homo sapiens (Human), UniProt Q08881); assay: ITK kinase inhibition assay; format: biochemical; conditions: micro-fluidic detection, 3 hours at 25° C.
Chain of ITK (Q08881 whole entry): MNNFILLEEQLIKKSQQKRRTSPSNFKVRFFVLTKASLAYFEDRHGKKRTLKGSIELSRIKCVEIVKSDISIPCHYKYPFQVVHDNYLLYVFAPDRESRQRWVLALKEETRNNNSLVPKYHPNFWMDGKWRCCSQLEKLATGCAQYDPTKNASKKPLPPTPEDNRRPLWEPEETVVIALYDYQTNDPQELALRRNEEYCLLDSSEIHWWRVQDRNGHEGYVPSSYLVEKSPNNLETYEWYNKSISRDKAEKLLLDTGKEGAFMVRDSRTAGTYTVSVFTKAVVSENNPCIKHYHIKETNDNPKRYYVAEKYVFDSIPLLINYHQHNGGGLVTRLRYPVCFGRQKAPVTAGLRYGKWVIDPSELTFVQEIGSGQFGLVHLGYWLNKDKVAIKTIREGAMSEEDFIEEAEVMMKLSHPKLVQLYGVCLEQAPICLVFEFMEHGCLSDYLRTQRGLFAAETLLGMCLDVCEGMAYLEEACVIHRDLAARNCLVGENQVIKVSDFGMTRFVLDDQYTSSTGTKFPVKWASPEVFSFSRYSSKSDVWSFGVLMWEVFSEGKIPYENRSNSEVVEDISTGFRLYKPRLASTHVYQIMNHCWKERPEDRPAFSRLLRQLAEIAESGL
Description: (§1) The in vitro kinase assays were performed at Nanosyn utilizing micro-fluidic detection technology. The test compounds were serially pre-diluted in DMSO and added, by the acoustic dispensing (Labcyte® 550), directly to 384 well assay plates into 10 uL of a buffer with enzyme comprising: 100 mM HEPES, pH7.5, 5 mM MgCl2, 0.1% bovine serum albumin, 1 mM DTT, 0.01% Triton X-100 and the enzyme. Final DMSO concentration was maintained at 1% in all samples, including the controls. The reactions were initiated by addition of ATP (to the specified concentration) and the fluorescently labeled peptide substrate to a final concentration of 1 uM, and incubated for 3 hours at 25° C. Following incubation, the reactions were quenched by addition of 40 μL of termination buffer (100 mM HEPES, pH7.5, 0.01% Triton X-100, 50 mM EDTA). Terminated plates were analyzed using Caliper LabChip® 3000 microfluidic electrophoresis instrument (Caliper Life Sciences/Perkin Elmer). The enzymatic modification of the peptide substrate (phosphorylation) results in a change of net charge enabling electrophoretic separation of product from substrate. As substrate and product are separated by electrophoresis, two peaks of fluorescence are observed. Change in the relative fluorescence intensity of the substrate and product peaks was the parameter measured, reflecting enzyme activity. In the presence of inhibitor, the ratio between product and substrate is altered: signal of the product decreases, while the signal of the substrate increases. Activity in each test sample was determined as the product to sum ratio (PSR):P/(S+P), where P is the peak height of the product and S is the peak height of the FAM-cAMP substrate. For each compound, enzyme activity was measured at 12 concentrations spaced by 3× dilution intervals. Negative control samples (0%-inhibition in the absence of inhibitor, DMSO only) and positive control samples (100%-inhibition, in the absence of enzyme or in the presence of control inhibitor) were assembled in replicates of four and were used to calculate %-inhibition values in the presence of compounds. Percent inhibition (Pinh) was determined using the following equation: Pinh=(PSR0%−PSRinh)/(PSR0%−PSR100%)*100, where PSRinh is the product sum ratio in the presence of inhibitor, PSR0% is the product sum ratio in the absence of inhibitor and PSR100% is the product sum ratio in 100%-inhibition control samples. To determine IC50 values, the inhibition curves (Pinh versus inhibitor concentration) were fitted by 4 parameter sigmoid dose-response model using XLfit software (IDBS).

RLK/TXK = RLK/TXK (Homo sapiens (Human), UniProt P42681); assay: RLK/TXK kinase inhibition assay; format: biochemical; conditions: micro-fluidic detection, 3 hours at 25° C.
Chain of RLK/TXK (P42681 whole entry): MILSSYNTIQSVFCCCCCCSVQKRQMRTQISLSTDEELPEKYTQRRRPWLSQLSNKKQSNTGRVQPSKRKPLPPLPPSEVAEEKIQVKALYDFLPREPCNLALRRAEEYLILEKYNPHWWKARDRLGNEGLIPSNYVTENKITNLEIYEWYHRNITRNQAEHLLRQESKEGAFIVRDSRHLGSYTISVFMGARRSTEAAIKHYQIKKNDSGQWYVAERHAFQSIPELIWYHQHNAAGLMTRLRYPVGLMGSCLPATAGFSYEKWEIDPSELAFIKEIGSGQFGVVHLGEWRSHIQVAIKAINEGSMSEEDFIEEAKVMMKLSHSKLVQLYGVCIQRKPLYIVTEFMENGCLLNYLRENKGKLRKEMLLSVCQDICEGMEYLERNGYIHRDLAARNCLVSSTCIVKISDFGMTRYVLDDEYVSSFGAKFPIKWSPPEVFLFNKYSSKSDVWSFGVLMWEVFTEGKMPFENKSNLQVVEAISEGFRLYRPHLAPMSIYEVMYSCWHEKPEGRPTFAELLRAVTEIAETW
Description: as §1, with “384well” for “384 well”, “(PSR): P/(S+P),” for “(PSR):P/(S+P),”

| SMILES | EC50 (Human PBMCs) [nM] | EC50 [1] [nM] | EC50 (ITK) [nM] | EC50 (RLK/TXK) [nM] |
| --- | --- | --- | --- | --- |
| C=CC(=O)N[C@@H]1CCC[C@H](n2c(NC(=O)c3ccc(C(F)F)s3)nc3cc(CN[C@@H](C)C(C)(C)C)ccc32)C1 [Compound 81] | 10 to 100 | < 10 | < 10 | 10 to 100 |
| C=CC(=O)N[C@H]1CC[C@@H](n2c(NC(=O)c3ccc(C(F)F)s3)nc3cc(CN[C@@H](C)C(C)(C)C)ccc32)C1 [Compound 62] | > 100 | 10 to 100 | < 10 | 10 to 100 |
| C=CC(=O)Nc1cccc(-n2c(NC(=O)c3ccc(C(F)F)s3)nc3cc(N(C)C(=O)[C@H](C)N4CCOCC4)ccc32)c1 [Compound 77] | 10 to 100 | < 10 | < 10 | < 10 |
| C=CC(=O)Nc1cccc(-n2c(NC(=O)c3cncs3)nc3cc(CN[C@@H](C)C(C)(C)C)ccc32)c1 [Compound 17] | 10 to 100 | 10 to 100 | 10 to 100 | < 10 |
| C=CC(=O)Nc1cccc(-n2c(NC(=O)c3ccc(C#N)cc3)nc3cc(CN[C@@H](C)C(C)(C)C)ccc32)c1 [Compound 11] | 10 to 100 | > 100 | < 10 | < 10 |
| C=CC(=O)N[C@H]1CC[C@@H](n2c(NC(=O)c3ccc(C(F)F)s3)nc3cc(CN[C@@H](C)C(C)(C)C)ccc32)CC1 [Compound 3] | > 100 | 10 to 100 | 10 to 100 | 10 to 100 |
| C=CC(=O)N[C@@H]1CC[C@H](n2c(NC(=O)c3ccc(C(F)F)s3)nc3cc(CN[C@@H](C)C(C)(C)C)ccc32)C1 [Compound 18] | 10 to 100 | < 10 | < 10 | < 10 |
| C=CC(=O)Nc1cccc(-n2c(NC(=O)c3ccc(F)cc3)nc3cc(CN[C@@H](C)C(C)(C)C)ccc32)c1 [Compound 20] | > 100 | 10 to 100 | – | – |
| C=CC(=O)N[C@H]1CC[C@@H](n2c(NC(=O)c3ccns3)nc3cc(CN[C@@H](C)C(C)(C)C)ccc32)CC1 [Compound 67] | > 100 | 10 to 100 | – | – |
| C[C@H](NCc1ccc2c(c1)nc(NC(=O)c1ccc(C(F)F)s1)n2-c1cccc(NC(=O)/C=C/CN(C)C)c1)C(C)(C)C [Compound 78] | > 100 | 10 to 100 | – | – |
| C=CC(=O)Nc1cc(-n2c(NC(=O)c3ccc(C(F)F)s3)nc3cc(CN[C@@H](C)C(C)(C)C)ccc32)ccc1F [Compound 34] | > 100 | > 100 | – | – |
| C=CC(=O)Nc1cccc(-n2c(NC(=O)c3ccc(C(F)F)s3)nc3cc(CN[C@@H](C)CC)ccc32)c1 [Compound 21] | < 10 | 10 to 100 | – | – |
| C=CC(=O)N(C)[C@H]1C[C@@H](n2c(NC(=O)c3ccc(C(F)F)s3)nc3cc(CN[C@@H](C)C(C)(C)C)ccc32)C1 [Compound 6] | 10 to 100 | < 10 | – | – |
| C=CC(=O)Nc1ccc(-n2c(NC(=O)c3ccc(C(F)F)s3)nc3cc(CN[C@@H](C)C(C)(C)C)ccc32)cc1 [Compound 4] | > 100 | 10 to 100 | – | – |
| C=CC(=O)Nc1cccc(-n2c(NC(=O)c3ccc(C(F)F)s3)nc3cc(CN[C@@H](CO)C(C)(C)C)ccc32)c1 [Compound 22] | < 10 | < 10 | – | – |
| C=CC(=O)Nc1cccc(-n2c(NC(=O)c3ccc(C(F)F)s3)nc3cc(CN[C@H]4CC[C@@H](O)CC4)ccc32)c1 [Compound 35] | < 10 | 10 to 100 | – | – |
| C=CC(=O)Nc1cccc(-n2c(NC(=O)c3ccc(C(F)F)s3)nc3cc(CNCC(C)(C)CO)ccc32)c1 [Compound 29] | < 10 | < 10 | – | – |
| C=CC(=O)Nc1cccc(-n2c(NC(=O)c3ccc(C(F)F)s3)nc3cc(CN(C(C)=O)[C@@H](C)C(C)(C)C)ccc32)c1 [Compound 36] | 10 to 100 | 10 to 100 | – | – |
| C=CC(=O)N[C@H]1CCC[C@@H](n2c(NC(=O)c3ccc(C(F)F)s3)nc3cc(CN[C@@H](C)C(C)(C)C)ccc32)C1 [Compound 68] | < 10 | – | < 10 | < 10 |
| C=CC(=O)Nc1cccc(-n2c(NC(=O)c3ccc(C(F)F)s3)nc3cc(N(C)S(C)(=O)=O)ccc32)c1 [Compound 80] | 10 to 100 | 10 to 100 | – | – |
| C=CC(=O)Nc1cccc(-n2c(NC(=O)c3cccc(OC)c3)nc3cc(CN[C@@H](C)C(C)(C)C)ccc32)c1 [Compound 8] | > 100 | 10 to 100 | – | – |
| C=CC(=O)Nc1cccc(-n2c(NC(=O)c3ccns3)nc3cc(CN4CCOCC4)ccc32)c1 [Compound 73] | 10 to 100 | < 10 | – | – |
| C=CC(=O)Nc1cccc(-n2c(NC(=O)c3ccc(Cl)cc3)nc3cc(CN[C@@H](C)C(C)(C)C)ccc32)c1 [Compound 10] | 10 to 100 | 10 to 100 | – | – |
| C=CC(=O)Nc1cccc(-n2c(NC(=O)c3ccc(C(F)F)s3)nc3cc(CNCC(C)(C)C)ccc32)c1 [Compound 23] | < 10 | < 10 | – | – |
| C=CC(=O)Nc1cccc(-n2c(NC(=O)c3ccc(C(F)F)s3)nc3cc(CNCC)ccc32)c1 [Compound 40] | < 10 | 10 to 100 | – | – |
